# Organism: Rattus norvegicus
# Assay: Open TG-GATES - Regimen: Single
# Type: toxicity, organism-based, Sprague-Dawley
# Design: regimen Single, gender Male, age 6 weeks
# Details: in vivo, po, 0 mg/kg, route gavage, dose level Control; for APTT / Bas / Eos / Fbg / Hb / Ht / Lym / MCH / MCHC / MCV / Mono / Neu / PT / Plat / RBC / Ret / WBC: tissue Blood; for KIDNEY_L / KIDNEY_R / KIDNEY_TOTAL: tissue Kidney; for LIVER: tissue Liver; for A/G / ALP / ALT / AST / BUN / CRE / Ca / Cl / DBIL / GLC / IP / K / LDH / Na / PL / RALB / TBIL / TC / TG / TP / gamma-GTP: tissue Plasma
structure (smiles),measurement,setting,value
CCSCC[C@H](N)C(=O)O [ETHIONINE],TERMINAL_BW,3 h,218.5 g
same,APTT,3 h,19 s
same,Bas,3 h,0%
same,Eos,3 h,1%
same,Fbg,3 h,216.6 mg/dL
same,Hb,3 h,13.4 g/dL
same,Ht,3 h,39.8%
same,Lym,3 h,79.6%
same,MCH,3 h,21.1 pg
same,MCHC,3 h,33.5%
same,MCV,3 h,62.9 fL
same,Mono,3 h,3%
same,Neu,3 h,16.4%
same,PT,3 h,12.5 s
same,Plat,3 h,122 x10_4/uL
same,RBC,3 h,632.8 x10_4/ul
same,Ret,3 h,7.4%
same,WBC,3 h,83.3 x10_2/uL
same,KIDNEY_L,3 h,1 g
same,KIDNEY_R,3 h,1 g
same,KIDNEY_TOTAL,3 h,1.9 g
same,LIVER,3 h,10.3 g
same,A/G,3 h,1.6
same,ALP,3 h,974.2 IU/L
same,ALT,3 h,35.6 IU/L
same,AST,3 h,64.4 IU/L
same,BUN,3 h,11.6 mg/dL
same,CRE,3 h,0.4 mg/dL
same,Ca,3 h,10.6 mg/dL
same,Cl,3 h,100.6 meq/L
same,DBIL,3 h,0.066 mg/dL
same,GLC,3 h,196.6 mg/dL
same,IP,3 h,9.3 mg/dL
same,K,3 h,3.9 meq/L
same,LDH,3 h,172.8 IU/L
same,Na,3 h,140.2 meq/L
same,PL,3 h,136.8 mg/dL
same,RALB,3 h,3.3 g/dL
same,TBIL,3 h,0.1 mg/dL
same,TC,3 h,70.6 mg/dL
same,TG,3 h,80.8 mg/dL
same,TP,3 h,5.4 g/dL
same,gamma-GTP,3 h,1 IU/L
same,TERMINAL_BW,6 h,211.6 g
same,APTT,6 h,18.9 s
same,Bas,6 h,0%
same,Eos,6 h,1%
same,Fbg,6 h,229 mg/dL
same,Hb,6 h,13.6 g/dL
same,Ht,6 h,40%
same,Lym,6 h,81.8%
same,MCH,6 h,21.3 pg
same,MCHC,6 h,34.1%
same,MCV,6 h,62.5 fL
same,Mono,6 h,2.8%
same,Neu,6 h,13.2%
same,PT,6 h,12.8 s
same,Plat,6 h,111.7 x10_4/uL
same,RBC,6 h,640.6 x10_4/ul
same,Ret,6 h,6.9%
same,WBC,6 h,79.1 x10_2/uL
same,KIDNEY_L,6 h,1 g
same,KIDNEY_R,6 h,0.9 g
same,KIDNEY_TOTAL,6 h,1.9 g
same,LIVER,6 h,9 g
same,A/G,6 h,1.5
same,ALP,6 h,1036.8 IU/L
same,ALT,6 h,38.6 IU/L
same,AST,6 h,70.6 IU/L
same,BUN,6 h,10.6 mg/dL
same,CRE,6 h,0.4 mg/dL
same,Ca,6 h,10.4 mg/dL
same,Cl,6 h,102.4 meq/L
same,DBIL,6 h,0.076 mg/dL
same,GLC,6 h,196 mg/dL
same,IP,6 h,9.5 mg/dL
same,K,6 h,3.7 meq/L
same,LDH,6 h,189 IU/L
same,Na,6 h,140.6 meq/L
same,PL,6 h,145 mg/dL
same,RALB,6 h,3.3 g/dL
same,TBIL,6 h,0.1 mg/dL
same,TC,6 h,78 mg/dL
same,TG,6 h,88.6 mg/dL
same,TP,6 h,5.5 g/dL
same,gamma-GTP,6 h,1 IU/L
same,TERMINAL_BW,9 h,213.3 g
same,APTT,9 h,19 s
same,Bas,9 h,0%
same,Eos,9 h,1%
same,Fbg,9 h,224.8 mg/dL
same,Hb,9 h,13 g/dL
same,Ht,9 h,38.3%
same,Lym,9 h,76.8%
same,MCH,9 h,21.2 pg
same,MCHC,9 h,34%
same,MCV,9 h,62.4 fL
same,Mono,9 h,2.4%
same,Neu,9 h,19.2%
same,PT,9 h,13 s
same,Plat,9 h,123.8 x10_4/uL
same,RBC,9 h,615 x10_4/ul
same,Ret,9 h,6.9%
same,WBC,9 h,90.6 x10_2/uL
same,KIDNEY_L,9 h,1 g
same,KIDNEY_R,9 h,1 g
same,KIDNEY_TOTAL,9 h,1.9 g
same,LIVER,9 h,9.1 g
same,A/G,9 h,1.5
same,ALP,9 h,936 IU/L
same,ALT,9 h,31.2 IU/L
same,AST,9 h,63 IU/L
same,BUN,9 h,10 mg/dL
same,CRE,9 h,0.4 mg/dL
same,Ca,9 h,10.4 mg/dL
same,Cl,9 h,102.6 meq/L
same,DBIL,9 h,0.062 mg/dL
same,GLC,9 h,203.4 mg/dL
same,IP,9 h,9.4 mg/dL
same,K,9 h,3.6 meq/L
same,LDH,9 h,187.2 IU/L
same,Na,9 h,141.2 meq/L
same,PL,9 h,140 mg/dL
same,RALB,9 h,3.3 g/dL
same,TBIL,9 h,0.1 mg/dL
same,TC,9 h,79.6 mg/dL
same,TG,9 h,53.6 mg/dL
same,TP,9 h,5.5 g/dL
same,gamma-GTP,9 h,1 IU/L
same,TERMINAL_BW,24 h,228.7 g
same,APTT,24 h,20.7 s
same,Bas,24 h,0%
same,Eos,24 h,1%
same,Fbg,24 h,226 mg/dL
same,Hb,24 h,14 g/dL
same,Ht,24 h,41.5%
same,Lym,24 h,80.6%
same,MCH,24 h,21.8 pg
same,MCHC,24 h,33.8%
same,MCV,24 h,64.4 fL
same,Mono,24 h,2.6%
same,Neu,24 h,14.8%
same,PT,24 h,12.1 s
same,Plat,24 h,126 x10_4/uL
same,RBC,24 h,644.2 x10_4/ul
same,Ret,24 h,6.6%
same,WBC,24 h,105.3 x10_2/uL
same,KIDNEY_L,24 h,1 g
same,KIDNEY_R,24 h,1 g
same,KIDNEY_TOTAL,24 h,2 g
same,LIVER,24 h,11.1 g
same,A/G,24 h,1.5
same,ALP,24 h,936 IU/L
same,ALT,24 h,41 IU/L
same,AST,24 h,66.8 IU/L
same,BUN,24 h,14.4 mg/dL
same,CRE,24 h,0.4 mg/dL
same,Ca,24 h,10.7 mg/dL
same,Cl,24 h,102 meq/L
same,DBIL,24 h,0.096 mg/dL
same,GLC,24 h,211.6 mg/dL
same,IP,24 h,8.1 mg/dL
same,K,24 h,3.8 meq/L
same,LDH,24 h,183.8 IU/L
same,Na,24 h,140.2 meq/L
same,PL,24 h,156.6 mg/dL
same,RALB,24 h,3.4 g/dL
same,TBIL,24 h,0.1 mg/dL
same,TC,24 h,81 mg/dL
same,TG,24 h,99.2 mg/dL
same,TP,24 h,5.7 g/dL
same,gamma-GTP,24 h,1.2 IU/L
